Experimental findings from patent US9556160B2, “Guanidine compound” (Astellas Pharma Inc., priority 2011, dated 2017) are described below.

In test [1] the target is human VAP-1 enzyme (SSAO) (Homo sapiens (Human), UniProt Q16853). As to the kind of experiment: Inhibitory effect on human VAP-1 enzyme (SSAO) activity, radiochemistry-enzymatic assay with 14C-benzylamine. The class given is biochemical. Conditions: CHO-expressed human VAP-1, 14C-benzylamine 1×10^−5 mol/L. The procedure:
(§1) After homogenizing CHO (Chinese Hamster Ovary) cells stably expressing a human VAP-1 enzyme (SSAO) in a 50 mM phosphate buffer containing 1% NP-40, an enzyme suspension was obtained by taking the supernatant obtained by centrifugation. The enzyme suspension was preincubated with the compound of the present invention in a 96-well microplate at room temperature for 30 minutes. Subsequently, the enzyme suspension was incubated with ^14C-benzylamine (a final concentration of 1×10^−5 mol/L) to a final volume of […] at 37° C. for 1 hour. The enzymatic reaction was stopped by the addition of 2 mol/L (50 pt) of citric acid.

Test [2] deals with rat VAP-1 enzyme (SSAO) (Rattus norvegicus (Rat), UniProt O08590). As to the kind of experiment: Inhibitory effect on rat VAP-1 enzyme (SSAO) activity, radiochemistry-enzymatic assay with 14C-benzylamine. Type of test: biochemical. Conditions: CHO-expressed rat VAP-1, 14C-benzylamine 1×10^−5 mol/L. As to the method: as §1, with “rat” for “human”, “μL)” for “pt)”, “acid. The oxidation products were extracted directly in a 200 μL toluene scintillator, and the radioactivity was measured with a scintillation spectrometer.” for “acid.”
Sequence of rat VAP-1 enzyme (SSAO) (O08590 whole entry): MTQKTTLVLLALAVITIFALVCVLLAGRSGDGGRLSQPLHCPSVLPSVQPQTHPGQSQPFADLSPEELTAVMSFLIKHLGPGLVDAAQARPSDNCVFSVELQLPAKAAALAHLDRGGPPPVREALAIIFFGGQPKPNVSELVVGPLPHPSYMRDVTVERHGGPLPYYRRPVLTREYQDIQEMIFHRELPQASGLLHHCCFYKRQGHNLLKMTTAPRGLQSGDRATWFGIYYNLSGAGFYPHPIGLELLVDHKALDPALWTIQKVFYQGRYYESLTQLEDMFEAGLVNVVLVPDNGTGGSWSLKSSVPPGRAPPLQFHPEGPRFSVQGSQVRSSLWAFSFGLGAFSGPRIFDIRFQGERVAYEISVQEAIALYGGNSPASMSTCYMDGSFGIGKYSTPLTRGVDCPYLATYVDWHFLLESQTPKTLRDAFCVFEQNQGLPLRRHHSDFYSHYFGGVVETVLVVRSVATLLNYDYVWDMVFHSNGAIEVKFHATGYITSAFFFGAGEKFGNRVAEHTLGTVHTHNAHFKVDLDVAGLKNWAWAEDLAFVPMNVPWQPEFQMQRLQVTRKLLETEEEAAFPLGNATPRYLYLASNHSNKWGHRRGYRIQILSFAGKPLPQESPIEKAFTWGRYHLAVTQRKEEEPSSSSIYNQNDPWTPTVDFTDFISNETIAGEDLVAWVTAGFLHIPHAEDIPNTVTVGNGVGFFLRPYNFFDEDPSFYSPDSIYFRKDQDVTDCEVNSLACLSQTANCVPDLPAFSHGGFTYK

For test [3], the system named is VAP-1 enzyme (SSAO) activity in rat plasma. As to the kind of experiment: Inhibitory effect on rat VAP-1 enzyme (SSAO) activity in rat plasma after oral administration. Type of test: in vivo, Wistar male rats. The note with it: rat plasma VAP-1 activity, oral 0.3 mg/kg; for Inhibition Ratio (%) 1 h: 1 h after administration; for Inhibition Ratio (%) 3 h: 3 h after administration; for Inhibition Ratio (%) 6 h: 6 h after administration; for Inhibition Ratio (%) 24 h: 24 h after administration; for Inhibition Ratio (%) 12 h: 12 h after administration. As to the method:
Eight-week to twelve-week Wistar male rats were fasted for 20 hours, and orally administered with a test drug ([…]). Heparin blood collection from the tail vein was performed immediately before the administration, and at 1 h, 3 h, 6 h, 12 h, or 24 h after the administration. The resulting blood was subjected to centrifugation at 14000 rpm for 5 minutes to separate plasma, and the VAP-1 enzyme activity in the resulting plasma was measured by a radio-enzyme assay method.
For the radio-enzyme assay method, ^14C-benzylamine which is a synthetic substrate (10 μM) was reacted with the resulting plasma at 37° C., and the resulting metabolite was extracted with a mixture of toluene/ethyl acetate. The radioactivity was measured and taken as a VAP-1 enzyme activity in the plasma. The effect of the test drug was calculated from the inhibitory ratio (%) of the VAP-1 activity after the administration of the test drug relative to the VAP-1 activity in the plasma immediately before the administration.

Sequence of human VAP-1 enzyme (SSAO) (Q16853 whole entry): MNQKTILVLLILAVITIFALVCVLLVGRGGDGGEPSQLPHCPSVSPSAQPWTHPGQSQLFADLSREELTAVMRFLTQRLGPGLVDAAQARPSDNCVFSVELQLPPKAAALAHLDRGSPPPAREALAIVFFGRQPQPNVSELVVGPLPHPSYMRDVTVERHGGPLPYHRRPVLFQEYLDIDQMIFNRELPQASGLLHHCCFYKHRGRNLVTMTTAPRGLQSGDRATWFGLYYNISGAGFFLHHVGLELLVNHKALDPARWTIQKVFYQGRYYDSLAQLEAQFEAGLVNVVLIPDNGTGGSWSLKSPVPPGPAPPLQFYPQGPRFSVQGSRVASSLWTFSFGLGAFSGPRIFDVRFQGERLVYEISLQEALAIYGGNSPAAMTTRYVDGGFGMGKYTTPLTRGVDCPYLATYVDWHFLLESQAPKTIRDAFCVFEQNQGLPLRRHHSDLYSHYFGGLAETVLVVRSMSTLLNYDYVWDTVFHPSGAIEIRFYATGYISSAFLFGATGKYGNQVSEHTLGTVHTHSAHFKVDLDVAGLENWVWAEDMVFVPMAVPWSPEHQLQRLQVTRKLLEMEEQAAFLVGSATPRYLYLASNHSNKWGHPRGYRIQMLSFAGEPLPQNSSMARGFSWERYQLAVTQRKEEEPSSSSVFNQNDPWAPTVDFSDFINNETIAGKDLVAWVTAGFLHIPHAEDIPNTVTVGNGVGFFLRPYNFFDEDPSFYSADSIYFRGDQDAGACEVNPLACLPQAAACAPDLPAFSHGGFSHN

`N=C(N)NC(=O)OCc1cccc(N2CCN(C(=O)CC3CCOCC3)CC2)c1F` [Example 273] came in with an IC50 in test [1] of 19 nM. The compound also came in with an IC50 in test [2] of 0.95 nM. Moreover, in test [3], the “Inhibition Ratio (%) 1 h” value was 55%, the “Inhibition Ratio (%) 3 h” value is given as 74%, the “Inhibition Ratio (%) 6 h” value is 54% and the “Inhibition Ratio (%) 24 h” value was 19%.
The compound `Cc1cc(COC2CN(c3cccc(COC(=O)NC(=N)N)c3F)C2)cc(C)n1` [Example 555] gave an IC50 in test [1] of 20 nM. Inhibition in test [2] was half-maximal at 3.5 nM (IC50). For the same compound, in test [3], the “Inhibition Ratio (%) 1 h” value was found to be 67%, the “Inhibition Ratio (%) 3 h” value is 69%, the “Inhibition Ratio (%) 6 h” value stood at 54% and the “Inhibition Ratio (%) 24 h” value came out at 27%.
In test [1], `N=C(N)NC(=O)OCc1cccc(N2CCN(c3ccn4ccnc4c3)CC2)c1F` [Example 556] had an IC50 of 2.7 nM. For the same compound, the midpoint of inhibition in test [2], the IC50, lay at 1.3 nM. Moreover, in test [3], the “Inhibition Ratio (%) 1 h” value is on record as 55%, the “Inhibition Ratio (%) 3 h” value is 70%, the “Inhibition Ratio (%) 6 h” value is 46% and the “Inhibition Ratio (%) 24 h” value is 19%.
In the case of `CC(=O)N1CCC(C2CN(c3cccc(COC(=O)NC(=N)N)c3F)C2)CC1` [Example 559], the IC50 in test [1] was 4.3 nM. Also, the IC50 in test [2] worked out at 0.81 nM. In addition, in test [3], the “Inhibition Ratio (%) 1 h” value stood at 86%, the “Inhibition Ratio (%) 3 h” value is recorded as 89%, the “Inhibition Ratio (%) 6 h” value was 82% and the “Inhibition Ratio (%) 24 h” value came out at 59%.
As for `CCC(=O)N1CCC(OC2CN(c3cccc(COC(=O)NC(=N)N)c3F)C2)CC1` [Example 551], the IC50 in test [1] came out at 14 nM. In test [2], this compound registered an IC50 of 1.8 nM. For the same compound, in test [3], the “Inhibition Ratio (%) 1 h” value was 68%, the “Inhibition Ratio (%) 3 h” value is 59%, the “Inhibition Ratio (%) 6 h” value was found to be 51% and the “Inhibition Ratio (%) 24 h” value is 5%.
For the compound `Cc1ccc(N2CCN(c3cccc(COC(=O)NC(=N)N)c3F)CC2)cn1` [Example 300], the IC50 in test [1] came out at 19 nM. For the same compound, the IC50 in test [2] is 1.7 nM. Besides, in test [3], the “Inhibition Ratio (%) 1 h” value is listed as 92%, the “Inhibition Ratio (%) 3 h” value worked out at 93%, the “Inhibition Ratio (%) 6 h” value amounted to 88% and the “Inhibition Ratio (%) 24 h” value is reported as 85%.
`N=C(N)NC(=O)NCc1cccc(-c2cnc(N3CCOCC3)nc2)c1` [Example 322] showed an IC50 in test [1] of 51 nM. For the same compound, in test [2], half-maximal inhibition (IC50) required 22 nM. For the same compound, in test [3], the “Inhibition Ratio (%) 1 h” value stood at 40%, the “Inhibition Ratio (%) 3 h” value is 55%, the “Inhibition Ratio (%) 6 h” value was 50% and the “Inhibition Ratio (%) 12 h” value was found to be 38%.
As for `N=C(N)NC(=O)OCc1cccc(N2CCN(c3cnc(N4CC[C@@H](F)C4)nc3)CC2)c1F` [Example 118], in test [1], the half-maximal inhibitory concentration (IC50) was 29 nM. Also, the concentration for half-maximal inhibition (IC50) in test [2] came out at 1.7 nM. Further, in test [3], the “Inhibition Ratio (%) 1 h” value is listed as 87%, the “Inhibition Ratio (%) 3 h” value was 86%, the “Inhibition Ratio (%) 6 h” value amounted to 88% and the “Inhibition Ratio (%) 24 h” value turned out to be 59%.
Consider `COCCOc1cc(N2CCN(c3cccc(COC(=O)NC(=N)N)c3F)CC2)ccn1` [Example 565], for which the IC50 in test [1] amounted to 19 nM. For the same compound, in test [2], 2.5 nM corresponded to half-maximal inhibition (IC50). In addition, in test [3], the “Inhibition Ratio (%) 1 h” value was 77%, the “Inhibition Ratio (%) 3 h” value is 83%, the “Inhibition Ratio (%) 6 h” value worked out at 71% and the “Inhibition Ratio (%) 24 h” value came out at 47%.
In test [1], `COCCC(=O)N1CCC(C2CN(c3cccc(COC(=O)NC(=N)N)c3F)C2)CC1` [Example 563] registered an IC50 of 20 nM. Besides, in test [2], the IC50 stood at 1.5 nM. For the same compound, in test [3], the “Inhibition Ratio (%) 1 h” value stood at 69%, the “Inhibition Ratio (%) 3 h” value is on record as 77%, the “Inhibition Ratio (%) 6 h” value is 70% and the “Inhibition Ratio (%) 24 h” value was 43%.
Turning to `N=C(N)NC(=O)OCc1cccc(N2CCN(c3cccnc3)CC2)c1F` [Example 293], half-maximal inhibition in test [2] (IC50) was put at 0.97 nM. This counts as sub-nanomolar.
`N=C(N)NC(=O)OCc1cccc(-c2cnc(N3CC[C@H](F)C3)nc2)c1` [Example 178] had an IC50 in test [1] of 33 nM. Also, the IC50 in test [2] worked out at 4.4 nM. In test [3], the “Inhibition Ratio (%) 1 h” value stood at 63%, the “Inhibition Ratio (%) 3 h” value is 73%, the “Inhibition Ratio (%) 6 h” value worked out at 67% and the “Inhibition Ratio (%) 12 h” value was 80%.
`N=C(N)NC(=O)OCc1cccc(-c2cnc(N3CCN(c4ccc(CCC(=O)O)cc4)CC3)nc2)c1F` [Example 335]: the IC50 in test [1] worked out at 11 nM. Further, the IC50 in test [2] was found to be 2 nM. Further, in test [3], the “Inhibition Ratio (%) 1 h” value was 82%, the “Inhibition Ratio (%) 3 h” value stood at 84%, the “Inhibition Ratio (%) 6 h” value amounted to 86% and the “Inhibition Ratio (%) 12 h” value came out at 83%.
Compound `N=C(N)NC(=O)OCc1cccc(N2CC(C3CCN(C(=O)C4CC4)CC3)C2)c1F` [Example 561] returned an IC50 in test [1] of 9.6 nM. The midpoint of inhibition in test [2], the IC50, lay at 1.6 nM. In addition, in test [3], the “Inhibition Ratio (%) 1 h” value is listed as 91%, the “Inhibition Ratio (%) 3 h” value is 92%, the “Inhibition Ratio (%) 6 h” value worked out at 85% and the “Inhibition Ratio (%) 24 h” value was found to be 64%.
As for `COC1CN(c2ncc(-c3cccc(COC(=O)NC(=N)N)c3F)cn2)C1` [Example 63], it took 3.4 nM to reach half-maximal inhibition in test [1] (IC50). In addition, half-maximal inhibition in test [2] (IC50) required 1.1 nM. Besides, in test [3], the “Inhibition Ratio (%) 1 h” value is 83%, the “Inhibition Ratio (%) 3 h” value turned out to be 87%, the “Inhibition Ratio (%) 6 h” value worked out at 80% and the “Inhibition Ratio (%) 12 h” value was found to be 68%.
In test [1], `CC(=O)N1CCC(OC2CCN(c3cccc(COC(=O)NC(=N)N)c3F)CC2)CC1` [Example 220] yielded an IC50 of 25 nM. The compound also came in with an IC50 in test [2] of 1 nM. Also, in test [3], the “Inhibition Ratio (%) 1 h” value turned out to be 80%, the “Inhibition Ratio (%) 3 h” value was determined as 80%, the “Inhibition Ratio (%) 6 h” value was determined as 84% and the “Inhibition Ratio (%) 24 h” value is reported as 27%.
Turning to `COCc1ccc(OC2CN(c3cccc(COC(=O)NC(=N)N)c3F)C2)cn1` [Example 553], the IC50 in test [1] worked out at 20 nM. The compound further gave an IC50 in test [2] of 3 nM. Moreover, in test [3], the “Inhibition Ratio (%) 1 h” value was determined as 67%, the “Inhibition Ratio (%) 3 h” value came to 57%, the “Inhibition Ratio (%) 6 h” value is recorded as 50% and the “Inhibition Ratio (%) 24 h” value was 40%.
Compound `N=C(N)NC(=O)OCc1cccc(N2CCC(c3ccncc3)CC2)c1F` [Example 52] came in with an IC50 in test [1] of 23 nM. The same compound displayed an IC50 in test [2] of 1.7 nM. For the same compound, in test [3], the “Inhibition Ratio (%) 1 h” value is given as 90%, the “Inhibition Ratio (%) 3 h” value was 68%, the “Inhibition Ratio (%) 6 h” value is 52% and the “Inhibition Ratio (%) 12 h” value was 37%.
As to `CCS(=O)(=O)N1CCN(c2cccc(COC(=O)NC(=N)N)c2F)CC1` [Example 157], 49 nM corresponded to half-maximal inhibition in test [1] (IC50). Besides, it took 2.1 nM to reach half-maximal inhibition in test [2] (IC50). In test [3], the “Inhibition Ratio (%) 1 h” value amounted to 95%, the “Inhibition Ratio (%) 3 h” value was determined as 91%, the “Inhibition Ratio (%) 6 h” value was 80% and the “Inhibition Ratio (%) 24 h” value was 39%.
Consider `N=C(N)NC(=O)OCc1cccc(-c2cnc(OCC3CCN(C(=O)C4CC4)CC3)nc2)c1F` [Example 74], for which the concentration for half-maximal inhibition (IC50) in test [1] amounted to 5.3 nM. In test [2], this compound gave an IC50 of 1.8 nM. Further, in test [3], the “Inhibition Ratio (%) 1 h” value came to 79%, the “Inhibition Ratio (%) 3 h” value worked out at 74%, the “Inhibition Ratio (%) 6 h” value is recorded as 81% and the “Inhibition Ratio (%) 24 h” value was 40%.
Take `Cl.N=C(N)NC(=O)OCc1cccc(-c2cnc(N3CCOCC3)nc2)c1F` [Example 81]: the IC50 in test [1] was determined as 9.7 nM. Moreover, in test [2], the 50% inhibitory concentration (IC50) is 3.9 nM. For the same compound, in test [3], the “Inhibition Ratio (%) 1 h” value was 78%, the “Inhibition Ratio (%) 3 h” value is 78%, the “Inhibition Ratio (%) 6 h” value is listed as 78% and the “Inhibition Ratio (%) 12 h” value is on record as 53%.
In test [1], `CS(=O)(=O)N1CCC(C2CN(c3cccc(COC(=O)NC(=N)N)c3F)C2)CC1` [Example 564] gave a concentration for half-maximal inhibition (IC50) of 19 nM. In addition, half-maximal inhibition in test [2] (IC50) required 1.5 nM. Also, in test [3], the “Inhibition Ratio (%) 1 h” value turned out to be 89%, the “Inhibition Ratio (%) 3 h” value amounted to 90%, the “Inhibition Ratio (%) 6 h” value is 85% and the “Inhibition Ratio (%) 24 h” value is on record as 59%.
Consider `CC1(O)CCN(c2ncc(N3CCN(c4cccc(COC(=O)NC(=N)N)c4F)CC3)cn2)CC1` [Example 110], for which the IC50 in test [1] turned out to be 32 nM. In test [2], this compound gave an IC50 of 1.4 nM. In test [3], the “Inhibition Ratio (%) 1 h” value worked out at 96%, the “Inhibition Ratio (%) 3 h” value amounted to 96%, the “Inhibition Ratio (%) 6 h” value came out at 95% and the “Inhibition Ratio (%) 24 h” value is 75%.
